Reference: patent US10208033B2, “β-carboline, dihydro-β-carboline and tetrahydro-β-carboline alkaloid derivatives and preparation methods same and use in aspects of preventing and treating plant viruses, fungicides and insecticides” (NANKAI UNIVERSITY, priority 2013, dated 2019)
Where two headings read alike, the source gives them in different places.

Legend:
[1] = system: tobacco mosaic virus (TMV); assay: Anti-TMV in vitro effect (half-leaf soaking); format: cell-based, tobacco mosaic virus (host Nicotiana tabacum L.cv.Xanthi NN)
[2] = system: tobacco mosaic virus (TMV); assay: Anti-TMV in vivo inactivation; design: species or system tobacco mosaic virus (host Nicotiana tabacum L.cv.Xanthi NN)
[3] = system: tobacco mosaic virus (TMV); assay: Anti-TMV in vivo therapeutic effect; design: species or system tobacco mosaic virus (host Nicotiana tabacum L.cv.Xanthi NN)
[4] = system: tobacco mosaic virus (TMV); assay: Anti-TMV in vivo protective effect; design: species or system tobacco mosaic virus (host Nicotiana tabacum L.cv.Xanthi NN)
cucumber fusarium wilt = assay: Fungicidal (bactericidal) activity in vitro, PDA colony diameter; format: cell-based; details: 50 mg/kg
Cercospora arachidicola = assay: as above; format: cell-based; details: 50 mg/kg
Macrophoma kawatsukai = assay: as above; format: cell-based; details: 50 mg/kg
Alternaria solani = assay: as above; format: cell-based; details: 50 mg/kg
Fusarium graminearumt = assay: microbe, parasite or virus in culture; format: cell-based; details: 50 mg/kg
potato late blight = assay: microbe, parasite or virus in culture; format: cell-based
Sclerotinia scleotiorum = assay: Fungicidal (bactericidal) activity in vitro, PDA colony diameter; format: cell-based; details: 50 mg/kg
Botrytis cinerea = assay: as above; format: cell-based; details: 50 mg/kg
Rhizoctonia solani = assay: as above; format: cell-based; details: 50 mg/kg
Phytophthora capsici = assay: as above; format: cell-based; details: 50 mg/kg
Fusarium fujikuroi = assay: as above; format: cell-based; details: 50 mg/kg
Rhizoctonia cereali = assay: as above; format: cell-based; details: 50 mg/kg
Bipolaria maydis = assay: organism not typed; format: cell-based; details: 50 mg/kg
[5] = system: Colletotrichum orbiculare; assay: Fungicidal (bactericidal) activity in vitro, PDA colony diameter; format: cell-based; details: 50 mg/kg
armyworms = format: in vivo; details: concentration 600 mg/kg
cotton bollworms = assay: whole plant or invertebrate
Procedure: Experimental method of cotton bollworms: feed and drug mixing method: measure 3 mL of prepared solution and add it to about 27 g of newly prepared feed, thereby obtaining needed concentration through dilution by 10 times.

mosquito larvae = assay: whole plant or invertebrate
Method in brief: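 Early fourth-instar Culex pipiens pallens larvae from an indoor colony, 10 per beaker, exposed to test compound at 5 ppm in water, diluted from a 1000 ppm acetone mother solution. Blank: water containing 0.5 mL test solvent.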

SMILES	Relative inhibition rate (%) In vitro activity ([1]; treatment dose 100 μg/mL) [%]	Relative inhibition rate (%) In vitro activity ([1]; treatment dose 500 μg/mL) [%]	Relative inhibition rate (%) In vivo inactivation ([2]; treatment dose 100 μg/mL) [%]	Relative inhibition rate (%) In vivo inactivation ([2]; treatment dose 500 μg/mL) [%]	Relative inhibition rate (%) In vivo therapy ([3]; treatment dose 100 μg/mL) [%]	Relative inhibition rate (%) In vivo therapy ([3]; treatment dose 500 μg/mL) [%]	Relative inhibition rate (%) In vivo protection ([4]; treatment dose 100 μg/mL) [%]	Relative inhibition rate (%) In vivo protection ([4]; treatment dose 500 μg/mL) [%]	Bactericidal activity (%) Cucumber fusarium wilt (cucumber fusarium wilt) [%]	Bactericidal activity (%) Cercospora arachidicola (Cercospora arachidicola) [%]	Bactericidal activity (%) Macrophoma kawatsukai (Macrophoma kawatsukai) [%]	Bactericidal activity (%) Alternaria solani (Alternaria solani) [%]	Bactericidal activity (%) Fusarium graminearumt (Fusarium graminearumt) [%]	Bactericidal activity (%) potato late blight (potato late blight) [%]	Bactericidal activity (%) Sclerotinia scleotiorum (Sclerotinia scleotiorum) [%]	Bactericidal activity (%) Botrytis cinerea (Botrytis cinerea) [%]	Bactericidal activity (%) Rhizoctonia solani (Rhizoctonia solani) [%]	Bactericidal activity (%) Phytophthora capsici (Phytophthora capsici) [%]	Bactericidal activity (%) Fusarium fujikuroi (Fusarium fujikuroi) [%]	Bactericidal activity (%) Rhizoctonia cereali (Rhizoctonia cereali) [%]	also measured
C[C@@H]1N[C@H](C(=O)NN=Cc2ccccn2)Cc2c1[nH]c1ccccc21 [Ic-17, (1S, 3S)—N′-(pyridine-2-methylene)-1-methyl-2,3,4,9-tetrahydropyridino [3,4-b] indol-3-formylhydrazine]	0	32.7	9.2	38.9	0	36.8	0	31.4	23.1	23.5	75.0	20.0	20.7	12.0	5.9	36.4	21.1	18.4	21.4	41.2	Bactericidal activity (%) Bipolaria maydis (Bipolaria maydis): 16.0%; Bactericidal activity (%) Colletotrichum orbiculare [5]: 25.9%; Armyworm Mortality (%) (armyworms): 25%; Cotton bollworm Mortality (%) (cotton bollworms; in vivo): 20%; Mosquito larvae Mortality (%) (mosquito larvae; in vivo): 50%; Corn borer Mortality (%) (corn borers; in vivo): 20%
Cc1nccc2c1[nH]c1cc(OC(=O)N(C)C)ccc12 [Ia-6, dimethylcarbamate (1-methylpyridino [3,4-b]indol-7)-ester]	0	12.6	0	12	0	15.6	0	18.7	23.1	53.9	26.2	15.8	38.1	9.1	7.8	12.1	46.1	9.4	21.4	36.8	Bactericidal activity (%) Bipolaria maydis (Bipolaria maydis): 27.3%; Bactericidal activity (%) Colletotrichum orbiculare [5]: 35.7%; Armyworm Mortality (%) (armyworms): 45%; Cotton bollworm Mortality (%) (cotton bollworms; concentration 600 mg/kg): 20%; Mosquito larvae Mortality (%) (mosquito larvae; concentration 5 mg/kg, 24 h): 20%; Mosquito larvae Mortality (%) (mosquito larvae; concentration 10 mg/kg, 24 h): 100%; Corn borer Mortality (%) (corn borers; concentration 600 mg/kg): 35%
C[C@@H]1N[C@H](C(=O)NN=Cc2ccc(N(C)C)cc2)Cc2c1[nH]c1ccccc21 [Ic-3, (1S, 3S)—N′-(4-dimethylaminobenzylidene)-1-methyl-2,3,4,9-tetrahydropyridino [3,4-b] indol-3-formylhydrazine]	20.4	56.8	25	64.5	23.1	60.4	18.9	62.4	38.5	76.5	97.2	65.0	31.0	72.0	41.2	72.7	63.2	78.9	35.7	96.1	Bactericidal activity (%) Bipolaria maydis (Bipolaria maydis): 64.0%; Bactericidal activity (%) Colletotrichum orbiculare [5]: 48.1%; Armyworm Mortality (%) (armyworms): 25%; Cotton bollworm Mortality (%) (cotton bollworms; concentration 600 mg/kg): 40%; Mosquito larvae Mortality (%) (mosquito larvae; concentration 10 mg/kg, 24 h): 55%; Corn borer Mortality (%) (corn borers; concentration 600 mg/kg): 30%
CCCCCCCC=NNC(=O)[C@@H]1Cc2c([nH]c3ccccc23)[C@H](C)N1 [Ic-24, (1S, 3S)—N′-octadien-1-methyl-2,3,4,9-tetrahydropyridino [3,4-b] indol-3-formylhydrazine]	23.2	61.3	32.8	73.4	31.7	70.9	27.3	59.6	9.1	36.4	24.2	19.0	61.5	17.4	46.2	44.4	22.2	18.2	35.3	29.7	Bactericidal activity (%) Bipolaria maydis (Bipolaria maydis): 36.0%; Bactericidal activity (%) Colletotrichum orbiculare [5]: 32.0%; Armyworm Mortality (%) (armyworms): 45%; Cotton bollworm Mortality (%) (cotton bollworms; concentration 600 mg/kg): 20%; Mosquito larvae Mortality (%) (mosquito larvae; concentration 5 mg/kg, 24 h): 10%; Mosquito larvae Mortality (%) (mosquito larvae; concentration 10 mg/kg, 24 h): 100%; Corn borer Mortality (%) (corn borers; concentration 600 mg/kg): 50%
